Data: patent publication US20260183297A1, “SELECTION OF PATIENTS FOR THE TREATMENT OF FADS1-MEDIATED DISEASES OR DISORDERS USING FADS-1 INHIBITORS” (AMGEN INC., priority 2022, published 2026)

What was measured:
mouse FADS1 = target: T1, mouse FADS1 (Mus musculus, UniProt Q920L1); assay: Mouse FADS1 cell-based assay; settings: in vitro; read-out: half-maximal inhibitory concentration (IC50) against mouse FADS1
T1 sequence (Q920L1 1-447): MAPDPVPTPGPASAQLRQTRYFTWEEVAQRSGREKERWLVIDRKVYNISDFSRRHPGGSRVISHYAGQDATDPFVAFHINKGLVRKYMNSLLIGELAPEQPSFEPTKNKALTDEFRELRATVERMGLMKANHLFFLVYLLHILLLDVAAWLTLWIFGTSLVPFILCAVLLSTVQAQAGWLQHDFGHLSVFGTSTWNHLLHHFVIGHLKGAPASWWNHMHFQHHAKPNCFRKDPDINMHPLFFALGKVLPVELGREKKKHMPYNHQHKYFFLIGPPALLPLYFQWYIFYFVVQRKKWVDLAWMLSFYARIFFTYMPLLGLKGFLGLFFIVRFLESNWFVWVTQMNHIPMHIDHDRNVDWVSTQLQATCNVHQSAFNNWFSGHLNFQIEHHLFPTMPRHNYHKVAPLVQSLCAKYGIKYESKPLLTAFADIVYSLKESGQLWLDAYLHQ
Experimental: HEK 293 cells in Dulbecco's Modified Eagle's medium (DMEM), 10% fetal bovine serum (FBS), 1× penicillin-streptomycin-glutamine (PSG) were mixed with FADS1 BacMam or FADS2 BacMam reagents at multiplicity of infection (MOI) ratio of 25 and plated in a in 96-well poly-D-lysine-coated plate. Plates were incubated in a 37° C., 5% CO2 for 24 hours. Cells were washed with DPBS and cells were incubated with […] of compound dilution in DPBS at 5% CO2, 37° C. for 20 minutes. Ten L of the substrate, ^13C5-DGLA (FADS1), or 13C-LA (FADS2) diluted in DPBS were added to the cells and incubated at 5% CO2, 37° C. for 30 minutes (FADS1) or 45 minutes (FADS2). Cells were then washed with DPBS and 50 μL of 2N NaOH were added to each well and incubated in a 65° C. oven for 1 hour for the saponification reaction. After cooling to room temperature, 22 μl of formic acid was added followed by the addition of 113 μl of acetonitrile with 1.5 μM ALA-d14 as the internal standard. Samples were then subjected to LC-MS/MS detection for the following analytes for the FADS1 reaction: ^13C5-DGLA and ^13C5-AA or the following analytes for the FADS2 reaction: ^13C18-LA, ^13C18-GLA, ^13C18-DGLA and ^13C18-AA. […]
The analyte peak areas were quantified by using the Analyst software (SCIEX, Framingham, MA). The percent of substrate to product conversion relative to untreated control were calculated (percent of control [POC]). […]

[1] = Biomarker analysis of tissue and plasma samples (Luminex: adiponectin, leptin, PAI-1, MCP-1); format: in vivo, mouse; settings: DIO mice, 30 mg/kg
Experimental: Frozen liver and adipose tissue samples were powdered with stainless steel Bessman Tissue Pulverizers (Spectrum Laboratory Products, Gardena, CA) per the manufacturer's instructions and the resulting tissue powders were stored in cryotubes at −80° C. until extraction. A portion of each powdered tissue sample was extracted using an in-house protein extraction buffer (50-mM Tris buffer, pH 7.4, 0.1 M NaCl and 0.1% Triton X-100) containing a protease inhibitor cocktail (Millipore Sigma, Burlington, MA). Samples were homogenized with a MagNA Lyser (Roche Diagnostics, Indianapolis, IN) for 30 seconds at 6500 rpm, placed at 4° C. for 30 minutes and then spun in a refrigerated microcentrifuge at 10,000 rpm for 10 minutes. The resulting supernatants were removed to clean 1.5 ml microfuge tubes and spun again at 14,000 rpm for 15 minutes. The final supernatants were aliquoted into labeled cluster tubes and protein concentrations were determined using a standard BCA Protein Assay (Thermo Fisher Scientific, Waltham, MA) prior to storage at −80° C.
Separate aliquots of tissue protein extracts and terminal plasma samples were used to quantify levels of various analytes. Multiple adipokines and hormones (MCP-1, leptin, insulin, and PAI-1) were assessed using a multiplex mouse-specific Luminex assay while adiponectin was evaluated using a single-plex mouse-specific Luminex assay (Millipore Sigma, Burlington, MA). All the commercial assays were performed per the manufacturer's instructions. Data were acquired on a FlexMap 3D (Luminex Corporation, Austin. TX). Tissue protein expression levels were normalized per mg of total protein.

In the case of `COc1ccn2c(=O)c(-c3cnn(CC(F)(F)C(F)(F)F)c3)c(C(F)(F)F)nc2c1` [Compound A, 8-methoxy-3-(1-(2,2,3,3,3-pentafluoropropyl)-1H-pyrazol-4-yl)-2-(trifluoromethyl)-4H-pyrido[1,2-a]pyrimidin-4-one], the IC50 (mouse FADS1) is reported as 4 nM, the adiponectin levels ([1]; EPI WAT) is reported as “elevated” and the MCP-1 levels ([1]; EPI and ING WAT) is reported as “trends towards lower”. For the same compound, the PAI-1 levels ([1]; EPI and ING WAT) was “trends towards lower” and the leptin levels ([1]; plasma, EPI and ING WAT) was “decreased”.
